Results on 28 compounds are retold here after patent US20090111801A1, “SUBSTITUTED PYRAZINONE DERIVATIVES FOR USE AS A MEDICINE” (Janssen Pharmaceutica N.V., priority 2006, published 2009).

The target of one assay is T1, hα2C receptor (Homo sapiens, UniProt P18825).
T1 construct: expressed in transfected cells; host or cells: CHO cells, stably transfected; membrane preparation
T1 sequence (P18825 1-462): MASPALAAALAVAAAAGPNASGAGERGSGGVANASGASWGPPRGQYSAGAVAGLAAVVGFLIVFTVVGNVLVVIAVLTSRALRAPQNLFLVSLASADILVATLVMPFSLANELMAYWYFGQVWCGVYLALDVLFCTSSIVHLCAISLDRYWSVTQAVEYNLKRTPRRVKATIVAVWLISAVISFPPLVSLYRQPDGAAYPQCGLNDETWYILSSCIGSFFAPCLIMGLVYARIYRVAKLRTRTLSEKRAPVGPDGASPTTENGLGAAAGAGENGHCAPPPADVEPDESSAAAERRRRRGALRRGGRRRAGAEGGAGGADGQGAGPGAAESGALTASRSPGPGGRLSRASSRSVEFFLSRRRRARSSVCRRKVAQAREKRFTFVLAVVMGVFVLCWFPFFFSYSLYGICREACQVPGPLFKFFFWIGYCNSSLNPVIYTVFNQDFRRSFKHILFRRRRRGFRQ
As to the kind of experiment: Radioligand binding experiment for α2C-adrenoceptor ([3H]raulwolscine, CHO cell membranes). The following applies: [3H]raulwolscine binding; for IC50: read-out: h-α2C pIC50 (converted). Here is the method:
(§1) The interaction of a compound of Formula (I) with α2-adrenoceptor receptors was assessed in in vitro radioligand binding experiments. In general, a low concentration of a radioligand with a high binding affinity for a particular receptor or transporter is incubated with a sample of a tissue preparation enriched in a particular receptor or transporter or with a preparation of cells expressing cloned human receptors in a buffered medium. During the incubation, the radioligand binds to the receptor or transporter. When equilibrium of binding is reached, the receptor bound radioactivity is separated from the non-bound radioactivity, and the receptor- or transporter-bound activity is counted. The interaction of the test compounds with the receptor is assessed in competition binding experiments. Various concentrations of the test compound are added to the incubation mixture containing the receptor- or transporter preparation and the radioligand. The test compound in proportion to its binding affinity and its concentration inhibits binding of the radioligand. The radioligand used for hα2A and hα2C receptor binding was [^3H]-raulwolscine.
(§2) CHO cells, stabile transfected with human adrenergic-α2A and α2C receptor cDNA, were cultured in Dulbecco's Modified Eagle's Medium (DMEM)/Nutrient mixture Ham's F12 (ratio 1:1)(Gibco, Gent-Belgium) supplemented with 10% heat inactivated fetal calf serum (Life Technologies, Merelbeke-Belgium) and antibiotics (100 IU/ml penicillin G, 100 μg/ml streptomycin sulphate, 110 μg/ml pyruvic acid and 100 μg/ml L-glutamine). One day before collection, cells were induced with 5 mM sodiumbutyrate. Upon 80-90% of confluence, cells were scraped in phosphate buffered saline without Ca^2+ and Mg^2+ and collected by centrifugation at 1500×g for 10 minutes. The cells were homogenised in Tris-HCl 50 mM using an Ultraturrax homogenizer and centrifuged for 10 minutes at 23,500×g. The pellet was washed once by resuspension and rehomogenization and the final pellet was resuspended in Tris-HCl, divided in 1 ml aliquots and stored at −70° C.
(§3) Membranes were thawed and re-homogenized in incubation buffer (glycylglycine 25 mM, pH 8.0). […] Filters were rinsed extensively with ice-cold rinsing buffer (Tris-HCl 50 mM pH 7.4). Filter-bound radioactivity was determined by scintillation counting in a Topcount (Packard, Meriden, Conn.) and results were expressed as counts per minute (cpm). Non-specific binding was determined in the presence of 1 μM oxymetazoline for the hα2A receptor and 1 μM spiroxatrine for hα2C receptor.
(§4) Data from assays in the presence of compound were calculated as a percentage of total binding measured in the absence of test compound. Inhibition curves, plotting percent of total binding versus the log value of the concentration of the test compound, were automatically generated, and sigmoidal inhibition curves were fitted using non-linear regression. The pIC50 values of test compounds were derived from individual curves.

For the next assay, the target named is T2, hα2A receptor (Homo sapiens, UniProt P08913).
T2 construct: expressed in transfected cells; host or cells: CHO cells, stably transfected; membrane preparation
T2 sequence (P08913 1-465): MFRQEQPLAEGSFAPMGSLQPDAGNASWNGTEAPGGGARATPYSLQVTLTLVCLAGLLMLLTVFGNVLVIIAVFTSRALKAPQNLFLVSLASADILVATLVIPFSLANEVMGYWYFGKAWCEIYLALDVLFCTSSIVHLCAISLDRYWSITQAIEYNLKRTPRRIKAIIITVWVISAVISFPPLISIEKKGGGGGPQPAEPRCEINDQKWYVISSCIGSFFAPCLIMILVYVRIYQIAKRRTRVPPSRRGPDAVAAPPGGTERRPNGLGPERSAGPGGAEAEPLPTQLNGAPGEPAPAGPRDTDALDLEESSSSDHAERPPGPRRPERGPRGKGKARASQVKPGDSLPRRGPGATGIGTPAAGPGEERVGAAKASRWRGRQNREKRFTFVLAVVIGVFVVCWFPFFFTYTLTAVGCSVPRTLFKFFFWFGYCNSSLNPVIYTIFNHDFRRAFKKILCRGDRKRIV
As to the kind of experiment: Radioligand binding experiment for α2A-adrenoceptor ([3H]raulwolscine, CHO cell membranes). The following applies: [3H]raulwolscine binding; for IC50: read-out: h-α2A pIC50 (converted). As to the method:
as §1, §2, §3, §4

For another assay, the target named is T3, 5HT-Transporter (Homo sapiens, UniProt P31645).
T3 construct: Human platelet membranes (Oceanix Biosciences Corporation, Hanover, Md., USA) were thawed; tissue Oceanix Biosciences Corporation, Hanover, Md., USA; host or cells: human platelet membranes
T3 sequence (P31645 whole entry): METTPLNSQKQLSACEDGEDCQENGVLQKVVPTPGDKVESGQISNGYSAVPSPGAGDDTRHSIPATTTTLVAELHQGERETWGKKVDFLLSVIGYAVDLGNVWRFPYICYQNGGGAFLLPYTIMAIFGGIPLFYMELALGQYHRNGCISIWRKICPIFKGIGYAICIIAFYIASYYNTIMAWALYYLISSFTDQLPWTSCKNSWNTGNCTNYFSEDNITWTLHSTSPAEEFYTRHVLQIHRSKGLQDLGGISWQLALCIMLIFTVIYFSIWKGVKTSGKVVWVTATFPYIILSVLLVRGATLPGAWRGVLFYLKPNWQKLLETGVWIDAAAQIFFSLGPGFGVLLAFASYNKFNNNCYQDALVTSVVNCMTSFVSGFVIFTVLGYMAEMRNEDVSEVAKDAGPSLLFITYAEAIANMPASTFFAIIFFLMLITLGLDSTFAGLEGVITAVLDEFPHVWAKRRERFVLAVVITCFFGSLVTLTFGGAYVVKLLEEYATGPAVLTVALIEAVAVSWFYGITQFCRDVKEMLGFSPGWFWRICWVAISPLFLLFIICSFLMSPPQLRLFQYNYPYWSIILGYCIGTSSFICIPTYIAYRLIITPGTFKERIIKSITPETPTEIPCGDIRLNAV
The assay can be described thus: Binding experiment for the 5HT-transporter ([3H]paroxetine, human platelet membranes). Particulars: [3H]paroxetine 0.5 nM; for IC50: read-out: h-5HTT pIC50 (converted). Here is the method: as §1
Human platelet membranes (Oceanix Biosciences Corporation, Hanover, Md., USA) were thawed, diluted in buffer (Tris-HCl 50 mM, 120 mM NaCl and 5 mM KCl) and quickly (max 3 s) homogenised with an Ultraturrax homogenizer. […] Incubation was stopped by rapid filtration of the incubation mixture over GF/B filters, pre-wetted with 0.1% polyethyleneamine, using a Filtermate196 harvester (Packard, Meriden, Conn.). Filters were rinsed extensively with ice-cold buffer and radioactivity on the filters was counted in a Topcount liquid scintillation counter (Packard, Meriden, Conn.). Data were expressed as cpm. Imipramine (at 1 μM final concentration) was used to determine the non-specific binding.
as §4

Some results are limits rather than exact numbers.

As to `C/C(=C\c1ccccc1)CN1CCC(Nc2nccn(-c3ccc(C(=O)N4CCC(C)CC4)cc3)c2=O)CC1` [2-11], the values for the IC50 on hα2C receptor, at hα2A receptor and on 5HT-Transporter were 6.31 nM, 63.1 nM and 501 nM, respectively.
The like results for `CCCCN(Cc1ccccc1)C(=O)Cn1ccnc(NC2CCN(C/C(C)=C/c3ccccc3)CC2)c1=O` [1-66] were, in that order, 12.6 nM, 79.4 nM and 794 nM.
Regarding `C/C(=C\c1ccccc1)CN1CCC(Nc2nccn(-c3ccc(NC(=O)CC4CCCC4)cc3)c2=O)CC1` [1-35], the IC50 at hα2C receptor was 50.1 nM; on hα2A receptor, 251 nM; on 5HT-Transporter it was 1260 nM.
For `C/C(=C\c1ccccc1)CN1CCC(Nc2nccn(CCCN(C)CC(=O)c3ccccc3)c2=O)CC1` [1-84], the IC50 is 10 nM at hα2C receptor, 100 nM at hα2A receptor and 1260 nM at 5HT-Transporter.
On the same counts, the results for `C/C(=C\c1ccccc1)CN1CCC(Nc2nccn(Cc3ccc(CNS(=O)(=O)c4ccc(C#N)cc4)cc3)c2=O)CC1` [1-161] are 25.1 nM, 100 nM and 501 nM.
As to `C/C(=C\c1ccccc1)CN1CCC(Nc2nccn(CC(=O)NCC(c3ccccc3)c3ccccc3)c2=O)CC1` [1-68], the IC50 on hα2C receptor was 12.6 nM; at hα2A receptor it was 158 nM; on 5HT-Transporter, 794 nM.
The like results for `C/C(=C\c1ccccc1)CN1CCC(Nc2nccn(CC(=O)N3CCC(C(F)(F)F)CC3)c2=O)CC1` [2-12] were, in that order, 3.98 nM, 63.1 nM and 2000 nM.
For the compound `C/C(=C\c1ccccc1)CN1CCC(Nc2nccn(CC(=O)N(C)CCN(C)Cc3ccccc3)c2=O)CC1` [1-111], the values for the IC50 on hα2C receptor, on hα2A receptor and at 5HT-Transporter were 0.794 nM, 50.1 nM and 3980 nM, respectively.
Regarding `C/C(=C\c1ccccc1)CN1CCC(Nc2nccn(CCCN(Cc3ccccc3)C(=O)Cc3ccccc3)c2=O)CC1` [1-89], the IC50 was 12.6 nM on hα2C receptor, 200 nM at hα2A receptor and 794 nM at 5HT-Transporter.
On the same counts, the results for `C/C(=C\c1ccccc1)CN1CCC(Nc2nccn(CC(=O)OCc3ccccc3)c2=O)CC1` [3-20] are 15.8 nM, 100 nM and 3980 nM.
Consider `CC(C)(C)OC(=O)NCc1ccc(Cn2ccnc(NC3CCN(C/C=C/c4ccccc4)CC3)c2=O)cc1` [16-5], for which the figures for the IC50 at hα2C receptor, at hα2A receptor and on 5HT-Transporter were 398 nM, 794 nM and 1260 nM, respectively.
As to `COC(=O)CCNC(=O)Cn1ccnc(NC2CCN(C/C(C)=C/c3ccccc3)CC2)c1=O` [1-94], the IC50 was 3.98 nM on hα2C receptor, 158 nM on hα2A receptor and 2510 nM at 5HT-Transporter.
In the case of `CCOC(=O)CN(Cc1ccccc1)C(=O)Cn1ccnc(NC2CCN(C/C(C)=C/c3ccccc3)CC2)c1=O` [1-101], the IC50 is 6.31 nM on hα2C receptor, 126 nM at hα2A receptor and 1580 nM at 5HT-Transporter.
As to `CCCNCc1cccc(-n2ccnc(NC3CCN(C/C(C)=C/c4ccccc4)CC3)c2=O)c1` [1-12], the “h-α2C pIC50” value on hα2C receptor is given as 9.0. Besides, on hα2A receptor, the “h-α2A pIC50” value is given as 8.4. Further, the “h-5HTT pIC50” value at 5HT-Transporter is listed as 6.1.
Take `C/C(=C\c1ccccc1)CN1CCC(Nc2nccn(-c3cnc4ccccc4c3)c2=O)CC1` [6-16]: the IC50 at hα2C receptor is 15.8 nM; at hα2A receptor it was 63.1 nM; at 5HT-Transporter, 316 nM.
On the same counts, the results for `C/C(=C\c1ccccc1)CN1CCC(Nc2nccn(Cc3cccc(Br)c3)c2=O)CC1` [5-15] are 25.1 nM, 79.4 nM and 398 nM.
On the same counts, the results for `COC(=O)CN(C)Cc1ccc(-n2ccnc(NC3CCN(C/C(C)=C/c4ccccc4)CC3)c2=O)cc1` [1-99] are 5.01 nM, 79.4 nM and 1000 nM.
On to `C/C(=C\c1ccccc1)CN1CCC(Nc2nccn(CCCN(Cc3ccccc3)S(=O)(=O)c3ccccc3)c2=O)CC1` [1-170], for which the values for the IC50 on hα2C receptor, on hα2A receptor and at 5HT-Transporter were 12.6 nM, 200 nM and 251 nM, respectively.
On the same counts, the results for `C/C(=C\c1ccccc1)CN1CCC(Nc2nccn(Cc3cnc(C)s3)c2=O)CC1` [6-8] are 25.1 nM, 158 nM and 3980 nM.
Turning to `C/C(=C\c1ccccc1)CN1CCC(Nc2nccn(-c3ccc(CN4CCCCC4)cc3)c2=O)CC1` [2-10], the IC50 was 1.58 nM at hα2C receptor, 31.6 nM at hα2A receptor and 251 nM on 5HT-Transporter.
In the case of `C/C(=C\c1ccccc1)CN1CCC(Nc2nccn(CC(=O)N3CCOCC3)c2=O)CC1` [2-41], the results for the IC50 at hα2C receptor, on hα2A receptor and on 5HT-Transporter were 12.6 nM, 126 nM and 3980 nM, respectively.
On the same counts, the results for `C=CCN1CCN(C(=O)Cn2ccnc(NC3CCN(C/C(C)=C/c4ccccc4)CC3)c2=O)CC1` [2-24] are 3.16 nM, 100 nM and 5010 nM.
The like results for `C/C(=C\c1ccccc1)CN1CCC(Nc2nccn(-c3cccnc3)c2=O)CC1` [6-11] were, in that order, 25.1 nM, 251 nM and 3980 nM.
As for `C/C(=C\c1ccccc1)CN1CCC(Nc2nccn(Cc3ccccc3Cl)c2=O)CC1` [5-17], the IC50 on hα2C receptor is 20 nM; at hα2A receptor it was 63.1 nM; on 5HT-Transporter, 251 nM.
As to `C/C(=C\c1ccccc1)CN1CCC(Nc2nccn(CC(=O)NCCCN(C)C)c2=O)CC1` [1-107], the IC50 is 1.58 nM on hα2C receptor, 31.6 nM at hα2A receptor and 2000 nM on 5HT-Transporter.
As for `C/C(=C\c1ccccc1)CN1CCC(Nc2nccn(CCCNS(C)(=O)=O)c2=O)CC1` [1-155], the IC50 was 20 nM at hα2C receptor, 200 nM on hα2A receptor and 1260 nM on 5HT-Transporter.
On the same counts, the results for `C/C(=C\c1ccccc1)CN1CCN(c2nccn(CC(=O)N(C)C)c2=O)CC1` [8-2] are 158 nM, 1580 nM and above 10000 nM.
As to `C/C(=C\c1ccccc1)CN1CCC(Nc2nccn(-c3cccc(CN(C)Cc4ccccc4)c3)c2=O)CC1` [1-53], the “h-α2C pIC50” value at hα2C receptor came to 8.6. Moreover, the “h-α2A pIC50” value on hα2A receptor came out at 8.4. Moreover, the “h-5HTT pIC50” value at 5HT-Transporter is 6.7.
